# According to patent US5536623A, “Method of producing highly water-soluble cyclodextrin complex” (Takeda Chemical Industries, Ltd., priority 1992, dated 1996):
# Like-named read-outs stand apart in the source and are kept apart here.
# What was measured:
# [1] = type: physicochemical; details: water
# Protocol: To a 5 ml aqueous solution containing 1000 mg of maltosyl-β-cyclodextrin (hereinafter abbreviated G2βCyD) was added 250 mg of 6-O-(N-chloroacetylcarbamoyl) fumagillol (hereinafter abbreviated TNP-470), followed by stirring at 25° C. for 8 hours to obtain a solution. The undissolved portion of TNP-470 was filtered out, and the filtrate was placed in a vial and lyophilized in accordance with a conventional method to yield a powder. To the entire amount of the powder thus obtained, 5 ml of water was added to yield a uniform aqueous solution. Separately, in accordance with the conventional method, 110 mg of G2βCyD was dissolved in 5 ml of water; 250 mg of TNP-470 was added to this solution, followed by stirring at 25° C. for 8 hours. Then, the solution was filtered. The above uniform solution and the filtered solution were assayed for TNP-470 by high performance liquid chromatography (HPLC). Also, the saturation solubility of TNP-470 alone was determined by HPLC.
# (§1) Column: ODS, YMC-Pack A-312 (Yamamura Chemical Laboratories)
# (§2) Mobil phase: water-acetonitrile (1:1 v/v)
# (§3) Detector: Ultra violet detector (wavelength: 210 nm)
# [2] = Storage stability at 40° C., TNP-470 quantified by HPLC (Example 6); type: physicochemical; details: powder, 730 h
# Protocol: as §1, §2, §3
# To a 5 ml aqueous solution containing 726 mg of maltosyl-β-cyclodextrin was added 100 mg of TNP-470, followed by stirring at 25° C. for 180 minutes to yield a solution. This aqueous solution was filtered, and 5 ml of the filtrate was placed in a vial and lyophilized to yield a powder. The stability of this powder and that of TNP-470 alone were compared after storage at 40° C. for i month. TNP-470 was quantified by HPLC.
# [3] = type: physicochemical; details: water; remark: listed apart in the source
# Protocol: as §1, §2, §3
# To a 5 ml aqueous solution containing 500 mg of glucosyl-β-cyclodextrin (hereinafter abbreviated G1[CyD) was added 250 mg of TNP-470, followed by stirring at 25° C. for 8 hours to obtain a solution. The resulting aqueous solution was filtered and lyophilized in accordance with the standard method to yield a powder. To the entire amount of the powder thus obtained, 5 ml of water was added to yield a uniform aqueous solution. Separately, in accordance With the conventional method, 100 mg of G1βCyD was dissolved in 5 ml of water; 250 mg of TNP-470 was added to this solution, followed by stirring at 25° C. for 8 hours. Then, the solution was filtered. The above uniform solution and the filtered solution were assayed for TNP-470 by HPLC method as described in Comparative Example 1. Also, the saturation solubility of TNP-470 alone was determined by HPLC.
smiles,measurement,setting,value
"CO[C@@H]1[C@H](OC(=O)NC(=O)CCl)CC[C@]2(CO2)[C@H]1[C@@]1(C)O[C@@H]1CC=C(C)C [TNP-470, 6-O-(N-chloroacetylcarbamoyl) fumagillol]",Comparison of Solubility (TNP-470),[1],1900 µg/mL
same,"Stability, Percent residence (TNP-470)",[2],68%
same,Comparison of Solubility (TNP-470),[3],1900 µg/mL
